Reference: US20160009686A1, “VEGFR3 INHIBITORS” (CANCER THERAPEUTICS CRC PTY LIMITED, priority 2012, published 2016)

Target: VEGFR3 cytoplasmic domain (Homo sapiens, UniProt P35916)
Assay: VEGFR3 Biochemical Assay (AlphaScreen)
Settings: GST-fusion enzyme, 500 μM ATP, 90 minutes at 30 degree Celsius (modified form in some cases: Hexa-His-fusion enzyme, 1 μM ATP); read-out: IC50

VEGFR3 cytoplasmic domain, sequence (P35916 798-1298 isoform P35916-1): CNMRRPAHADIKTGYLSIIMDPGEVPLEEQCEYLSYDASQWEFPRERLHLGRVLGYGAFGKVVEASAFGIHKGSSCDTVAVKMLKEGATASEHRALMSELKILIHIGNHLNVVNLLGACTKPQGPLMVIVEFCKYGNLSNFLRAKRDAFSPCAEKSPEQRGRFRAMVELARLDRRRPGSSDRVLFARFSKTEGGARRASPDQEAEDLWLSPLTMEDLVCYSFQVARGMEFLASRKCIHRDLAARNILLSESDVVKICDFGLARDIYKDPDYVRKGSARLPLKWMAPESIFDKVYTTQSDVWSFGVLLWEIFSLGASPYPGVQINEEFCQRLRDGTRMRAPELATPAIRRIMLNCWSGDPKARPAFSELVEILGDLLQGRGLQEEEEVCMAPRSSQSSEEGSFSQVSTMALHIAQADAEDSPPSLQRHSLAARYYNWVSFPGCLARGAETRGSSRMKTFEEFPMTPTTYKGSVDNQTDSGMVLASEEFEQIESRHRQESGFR

| Compound | IC50 |
| --- | --- |
| NC(=O)C1(c2ccccc2CCc2nc(Nc3cnn(CCO)c3)ncc2Cl)CC1 [Compound 76] | 4 nM |
| CN1CCC(c2ccc(Nc3ncc(C(F)(F)F)c(CCc4ccccc4C4(C(N)=O)CC4)n3)cn2)CC1 [Compound 69, 1-(2-(2-(2-((6-(1-Methylpiperidin-4-yl)pyridin-3-yl)amino)-5-(trifluoromethyl)pyrimidin-4-yl)ethyl)phenyl)cyclopropanecarboxamide] | 63 nM |
| Cc1cnc(Nc2ccc(C(C)N)cc2)nc1CCc1ccccc1C1(C(N)=O)CC1 (stereo not drawn) [Compound 50, 1-(2-(2-(2-((4-(1-Aminoethyl)phenyl)amino)-5-methylpyrimidin-4-yl)ethyl)phenyl)cyclopropanecarboxamide] | 46 nM |
| Cn1cc(Nc2ncc(C(F)(F)F)c(CCc3ccccc3C3(C(N)=O)CC3)n2)cn1 [Compound 65, 1-(2-(2-(2-((1-Methyl-1H-pyrazol-4-yl)amino)-5-(trifluoromethyl)pyrimidin-4-yl)ethyl)phenyl)cyclopropanecarboxamide] | 3 nM |
| Cn1ccc(Nc2ncc(Cl)c(CCc3ccccc3C3(C(N)=O)CC3)n2)n1 [Compound 28, 1-(2-(2-(5-Chloro-2-((1-methyl-1H-pyrazol-3-yl)amino)pyrimidin-4-yl)ethyl)phenyl)cyclopropanecarboxamide] | 268 nM |
| CC(C(N)=O)c1ccccc1CCc1nc(Nc2ccc(C3CCN(C)CC3)nc2)ncc1C(F)(F)F (stereo not drawn) [Compound 63, 2-(2-(2-(2-((6-(1-Methylpiperidin-4-yl)pyridin-3-yl)amino)-5-(trifluoromethyl)pyrimidin-4-yl)ethyl)phenyl)propanamide] | 28 nM |
| N#Cc1ccc(Nc2ncc(Cl)c(CCc3ccccc3C3(C(N)=O)CC3)n2)cn1 [Compound 31, 1-(2-(2-(5-Chloro-2-((6-cyanopyridin-3-yl)amino)pyrimidin-4-yl)ethyl)phenyl)cyclopropanecarboxamide] | 48 nM |
| Cc1cc(Nc2ncc(Cl)c(CCc3ccccc3C3(C(N)=O)CC3)n2)n[nH]1 [Compound 27, 1-(2-(2-(5-Chloro-2-((5-methyl-1H-pyrazol-3-yl)amino)pyrimidin-4-yl)ethyl)phenyl)cyclopropanecarboxamide] | 47 nM |
| CC(=O)NC(C)c1ccc(Nc2ncc(C(F)(F)F)c(CCc3ccccc3C3(C(N)=O)CC3)n2)cc1 (stereo not drawn) [Compound 71, 1-(2-(2-(2-(4-(1-Acetamidoethyl)phenylamino)-5-(trifluoromethyl)pyrimidin-4-yl)ethyl)phenyl)cyclopropanecarboxamide] | 10 nM |
| CC(C(N)=O)c1ccccc1CCc1nc(Nc2ccc(C3CCNCC3)nc2)ncc1Cl (stereo not drawn) [Compound 37, 2-(2-(2-(5-Chloro-2-((6-(piperidin-4-yl)pyridin-3-yl)amino)pyrimidin-4-yl)ethyl)phenyl)propanamide] | 31 nM |
| Cc1nn(C)cc1Nc1ncc(Cl)c(CCc2ccccc2C2(C(N)=O)CC2)n1 [Compound 26, 1-(2-(2-(5-Chloro-2-((1,3-dimethyl-1H-pyrazol-4-yl)amino)pyrimidin-4-yl)ethyl)phenyl)cyclopropanecarboxamide] | 12 nM |
| NC(=O)C1(c2ccccc2CCc2nc(Nc3ncco3)ncc2Cl)CC1 [Compound 11, 1-(2-(2-(5-Chloro-2-(oxazol-2-ylamino)pyrimidin-4-yl)ethyl)phenyl)cyclopropanecarboxamide] | 1300 nM |
| Cc1cnc(Nc2cnn(C)c2)nc1CCc1ccccc1C1(C(N)=O)CC1 [Compound 47, 1-(2-(2-(5-Methyl-2-((1-methyl-1H-pyrazol-4-yl)amino)pyrimidin-4-yl)ethyl)phenyl)cyclopropanecarboxamide] | 5 nM |
| Cc1ccc(Nc2ncc(Cl)c(CCc3ccccc3C(C)C(N)=O)n2)cn1 (stereo not drawn) [Compound 41, 2-(2-(2-(5-chloro-2-(6-methylpyridin-3-ylamino)pyrimidin-4-yl)ethyl)phenyl) propanamide] | 45 nM |
| Cc1n[nH]cc1Nc1ncc(Cl)c(CCc2ccccc2C2(C(N)=O)CC2)n1 [Compound 25, 1-(2-(2-(5-Chloro-2-((3-methyl-1H-pyrazol-4-yl)amino)pyrimidin-4-yl)ethyl)phenyl)cyclopropanecarboxamide] | 7 nM |
